Data: US20250170239A1, “CELLULAR REPROGRAMMING BY TARGETING THE GOLGI APPARATUS” (MUSC Foundation for Research Development, priority 2023, published 2025)

Assays:
Pmel CD8+ T cells [1] = experiment: FACS phenotyping (Tcm, stemness markers) of activated Pmel T cells; assay type: cell-based, mouse
Description: It was next determined if restoring H2S levels in activated T cells would alter their phenotype. To achieve steady-state levels of H2S in the T cell culture media, water-soluble H2S donor GYY4137 that slowly releases sustained levels of H2S up to 7 days in culture was used (Lee Z. W., et al., 2011, PLOS One, 6(6):e21077).

Pmel T cells [2] = test system: Pmel T cells
Method: (FIG. 18C) NAD+ and nicotinamide quantification from metabolomics dataset. (FIG. 18D) SIRT1 deacetylase activity in activated Pmel T cells (means of normalized OD values). (FIGS. 18E and 18F) Pmel T cells were activated with gp100 for 3 days in the presence of vehicle, GYY4137 (0.5 mM), or GYY4137+sirt1 inhibitor EX527 (10 μM). (FIG. 18E) Nuclear and cytoplasmic protein fractions were isolated and western blot analysis was performed to determine relative expression of nuclear and cytoplasmic Foxo1 (n=3). (FIG. 18F) Expression of CD62L and CD44 analyzed by FACS (n=3). (FIG. 18G) Splenocytes from wildtype and Cbs-knockout mice+/−GYY4137 activated with anti-CD3 and anti-CD28 antibodies followed by intranuclear staining for Foxo1. (FIG. 18H) Pmel T cells activated and expanded for metabolic flux analysis. Quantification of oxygen consumption rate (OCR), spare respiratory capacity (SRC), maximal respiration, and basal respiration (n=10 experimental replicates representative of 3 separate experiments). (FIG. 18I) Pmel T cells activated and expanded to day 5 for characterization of mitochondria using FACS, quantified by MFI values for mitoFM Deep Red, TMRM, and mitoSOX dyes (n=4). (FIG. 18J) Representative confocal microscopy images of mitochondria from control or H2S-treated T cells. (FIG. 18K) Human CD19 CAR-T cells expanded for 3 days with IL2+/−0.5 mM GYY4137 and collected for metabolic flux analysis. Shown is the quantification of mean oxygen consumption rate (OCR), spare respiratory capacity (SRC), maximal respiration, and basal respiration.
Alexa Fluor 488 (anti-Giantin) and Alexa Fluor 647 (anti-TOMM20) fluorescence were imaged in a Zeiss LSM 880 NLO inverted laser scanning confocal microscope (Thornwood, NY) using a 63× 1.4 N.A. plan-apochromat oil immersion lens. Alexa Fluor 488 and Alexa Fluor 647 were excited at 488 nm and 633 nm, respectively. Emitted light was detected with an Airyscan super-resolution detector at BP 495-550 nm for Giantin label and LP 654 nm for TOMM20. Z-stack Airyscan images were processed using the Huygens Professional deconvolution and image analysis software (Scientific Volume Imaging, The Netherland). After images were deconvolved using Huygens' Deconvolution Express (Standard Profile) that determines optimal parameters, 3D surface rendering of deconvolved images with watershed augmentation using Huygens' Surface Renderer was performed.

[3] = test system: phospho-PERK, phospho-IRE1a, ATF4; conditions: 12-hr incubation with 50 mM H2O2
Pmel T cells [4] = experiment: Golgi stress (monensin, H2O2, thapsigargin) in Pmel T cells: GM130, ROS, Golgi dispersion; assay type: cell-based, mouse; parameters: cell death / mitochondrial ROS / monensin-induced cell death and mitochondrial ROS accumulation / ER stress (p-PERK): dose or concentration left out as unconfirmed
Method: (FIG. 21A) Levels of intracellular glutathione assessed using FACS by employing ThiolTracker Violet dye in control CD19 CAR-T cells or CAR-T cells overexpressing Cbs (CbstdCD19-CAR-T) (n=3). (FIG. 21B) 12 hour Thapsigargin (700 nM) treatment was used to induce ER stress in WT T cells, Cbs-KO T cells, and Cbs-KO T cells+H2S. Levels of phosphorylated PERK were assessed by FACS (n=3). (FIG. 21C) Pmel T cells were treated with either Thapsigargin (700 nM) or Monensin (1 mM) for 12 hours, followed by staining for phosphorylated PERK (p-PERK) and GM130 to assess ER stress and Golgi stress, respectively (n=4). (FIG. 21D) Activated Pmel T cells were treated for 12 hours with either vehicle control or 1 mM Monensin (“+Golgi stress”) before being stained for giantin to assess Golgi dispersion. […] (FIG. 21E) Representative confocal microscopy images of mitochondria (Tom20) and Golgi (giantin) in human PBMCs treated with vehicle control or 0.5 mM GYY4137.
T cells were stained with conjugated for surface markers as described in the figure legends followed by fixation and permeabilization with BD Cytofix/Cytoperm Kit (BD Biosciences, 554722). The Golgi was labeled using anti-Giantin antibody (Abcam, ab80864) as the primary antibody followed by secondary antibody staining with anti-Rabbit IgG conjugated to Alexa Fluor 488 (ab150077). The cells were then imaged using ImageStreamX mark II imaging flow-cytometer and analyzed using IDEAS 6.2. Spectral overlap was compensated for using single-stain controls. Image analysis for Golgi area was performed using the protocol established by Eisenberg-Lerner et al.44 First, cells were gated on single cells using the area and aspect ratio features, and then gated on focused cells using the Gradient RMS feature. Golgi area was calculated using the anti-Giantin fluorescence signaling, using on the Threshold_50 mask that includes the 50% highest intensity pixels of the Golgi staining, with a mask defined as Area Threshold 50 was considered as the Golgi area to compare between the relevant conditions.

Pmel CD8+ T cells [5] = conditions: 3 days gp100 and IL2 +/− 0.5 mM GYY4137
Method: Next, the effect of H2S treatment on the transcriptomic profile of anti-tumor T cells was determined. Pmel CD8+ T cells were activated and expanded in the presence or absence of the H2S donor prior to RNA-sequencing.
Cells were immediately pelleted by centrifugation at 4° C. and resuspended in 1 mL Trizol. RNA concentration was measured using a NanoDrop 8000. RNA quality was assessed using an Agilent 4200 TapeStation and RINe values ranged from 9.7-10. […] Dual-indexed libraries were pooled to and sequenced at VANTAGE (Vanderbilt University Medical Center) on an Illumina NovaSeq 6000 (S4 flow cell) to a depth of approximately 25 million paired-end 150 bp reads per library. Reads were aligned to the mouse mm10 reference genome using STAR (v2.7.1a). Only uniquely mapped reads were retained for further analyses. Quality control metrics were assessed by Picard tool (http://broadinstitute.github.io/picard/). Gencode annotation for mm10 (version M25) was used as reference alignment annotation and downstream quantification. Gene level expression was calculated using featureCounts (v2.0.1). Counts were calculated based on protein-coding genes from the annotation file. Counts were normalized using counts per million reads (CPM). Genes with no reads in either Control or Treated samples were removed. […]

Cbs-KO T cells = Cbs-KO T cells activated with anti-CD3/anti-CD28 with or without H2S
Pmel CD8+ T cells [6] = experiment: H2O2-induced oxidative stress and antioxidant capacity in Pmel T cells
Method: (FIG. 20A) Cells treated for 12-hours with H2O2 (50 mM). FACS analysis quantifying 7-AAD+AnnexinV+ and 7−AAD−AnnexinV− populations (n=3). FIG. 20B, mRNA levels of GCLM and GCLC. (FIG. 20C) Measurements of surface thiols by AlexaFluor-488 C5 Maleimide (n=3) and intracellular glutathione by ThiolTracker Violet (n=4). […] (FIG. 20E) Fold increase in MFI for phosphorylated-PERK, phosphorylated-IRE1a, and ATF4 after 12-hr. incubation with 50 mM H2O2 (n=3). FIG. 20F, FACS quantification of cells expressing high phosphorylated-PERK levels after exhaustion assay (n=2). (FIG. 20G) Percentage of cells expressing high phosphorylated-PERK in Pmel cells overexpressing Cbs compared to Pmel cells transduced with control lentivirus (n=3). (FIG. 20H) Fold change in GM130 MFI in Pmel cells using exhaustion assay (n=3). (FIG. 20I) Cell viability and mitochondrial ROS following monensin treatment (1 mM). […] (FIG. 20K) GM130 MFI values in Pmel T cells overexpressing Cbs compared to control cells after transfer into tumor-bearing mice and TIL isolation after 7 days (n=4). (FIG. 20L) Pmel T cells cultured with B16-F10 supernatant and gp100, followed by FACS sorting for PD1+TIM3+ and PD1−TIM3− cells. Sorted cells stained with anti-Giantin antibody and analyzed for Golgi area via ImageStream. (FIG. 20M) FACS analysis of GM130 expression in PD1+TIM3+ and PD1−TIM3− populations. (FIG. 20N) Pmel cells treated with 1 mM monensin and analyzed for intracellular ROS (DCFDA). (FIG. 20O) FACS analysis of GM130 expression in Pmel cells treated with 50 mM H2O2 (6-hours). Data represent mean±SEM. Analyzed by two-sided Student's t-test or one-way ANOVA. ns, p-value >0.05; p-value *≤0.05; **≤0.01; ***≤0.001; ****≤0.0001.

With `C1COCCN1.COc1ccc(P(=S)(S)N2CCOCC2)cc1` (stereo not shown) [GYY4137] the “maintenance of increase in Tcm phenotype over time” value (Pmel CD8+ T cells [1]; FACS at day 0, 2, 4, 6, GYY4137 0.5 mM) was “consistently maintained over six days”, the “expression of Tcf7 and Sca1 (stemness markers)” value (Pmel CD8+ T cells [1]; GYY4137 0.5 mM, 3 days) was “significantly enhanced the expression of Tcf7 and Sca1” and the “Tcm phenotype (CD62L+CD44+ co-expression)” value (Pmel CD8+ T cells [1]; Pmel T cells activated with gp100 + IL2, GYY4137 0.5 mM, compared to IL2 alone) was “significant increase in the Tcm phenotype”. For the same molecule, the “mitochondrial organization and morphology (confocal)” value (Pmel T cells [2]; control vs H2S-treated) was “more compact and continuous mitochondria”, the “mitochondrial mass (mitoFM staining)” value (Pmel T cells [2]; expanded to day 5) was “increased overall mitochondrial mass” and the “mitochondrial membrane potential (TMRM staining)” value (Pmel T cells [2]; expanded to day 5) was “decreased mitochondrial membrane potential”. The “mitochondrial reactive oxygen species (mitoSOX staining)” value (Pmel T cells [2]; expanded to day 5) was “decreased mitochondrial reactive oxygen species”, the “oxidative stress-induced increase of phospho-PERK, phospho-IRE1a, ATF4” value [3] was “this increase was mitigated” and the “monensin-induced ROS (DCFDA)” value (Pmel T cells [4]; 1 mM monensin with H2S treatment) was “mitigated”. The “H2O2-mediated changes in Golgi stress (GM130 levels)” value (Pmel T cells [4]; 50 mM H2O2 (6-hours)) was “mitigated”, the “monensin-induced cell death and mitochondrial ROS accumulation” value (Pmel T cells [4]; monensin in presence of H2S) was “partially mitigated” and the significantly upregulated pathways (Pmel CD8+ T cells [5]) was “pathways related to immune receptor activity, T cell signaling, and cytokine activity”. For the same molecule, the “transcriptomic profile (PCA)” value (Pmel CD8+ T cells [5]) was “distinct transcriptomic profile”, the “expression of Foxo1 (intranuclear staining)” value (Cbs-KO T cells; Cbs-KO T cells +/− GYY4137) was “restored” and the “ER stress (pPERK)” value (Cbs-KO T cells; Cbs-KO T cells, 12 hour Thapsigargin (700 nM)) was “reduced”. For the same molecule, the Tcm fraction (Cbs-KO T cells; H2S added to Cbs-KO T cells) was “restoration of the Tcm fraction”, the “apoptotic cell death (7-AAD, AnnexinV)” value (Pmel CD8+ T cells [6]; 12-hours H2O2 (50 mM), +/− 0.5 mM GYY4137) was “significant decrease in apoptotic cell death” and the “expression of GCLC and GCLM (mRNA)” value (Pmel CD8+ T cells [6]; +/− 0.5 mM GYY4137) was “increased expression”. The “intracellular glutathione (iGSH)” value (Pmel CD8+ T cells [6]; ThiolTracker Violet) was “increase”.
